Assay results taken from patent US11325909B2, “Crystalline 2-amino-2-(hydroxymethyl)propane-1,3-diol salt of 4-(4-(1-isopropyl-7-OXO-1,4,6,7-tetrahydrospiro[indazole-5,4′-piperidine]-1′-carbonyl)-6-methoxypryridin-2-YL)benzoic acid” (Pfizer Inc., priority 2017, dated 2022).
Structures can show the parent of a compound that is named as a salt. One block for each compound: values may come before it.

Tests used:
[1] = Thermodynamic solubility (24 hours agitation at RT, filtration, nitrogen detector); type: physicochemical; conditions: for Solubility pH 1.2: pH 1.2, 24 hours at RT; for Solubility pH 6.5: pH 6.5, 24 hours at RT; for Solubility pH 7.4: pH 7.4, 24 hours at RT
Method: Four hundred fifty microliters (450 μL) of the desired medium was added to the filter and agitated for 24 hours at RT. After 24 hours, the sample was filtered and the filtrates were injected into a nitrogen detector for quantification.
pH 1.2: Weigh out 1.0 g of NaCl and transfer to a beaker. Add about 450 mL HPLC-grade water to dissolve the NaCl. […] Transfer the solution to a 500 mL volumetric flask and bring to 500 mL with HPLC-grade water.
pH 6.5: Titrate about 250 mL of 50 mM NaPO4 dibasic with about 500 mL of 50 mM NaPO4 monobasic to pH 6.5. The ending total volume is the volume at the point the solution has a pH 6.5 is reached when adding 50 mM NaPO4 monobasic to the 50 mM NaPO4 dibasic.
pH 7.4: Titrate about 200 mL of 50 mM NaPO4 dibasic with about 50 mL of 50 mM NaPO4 monbasic to pH 7.4. The ending total volume is the volume at the point the solution has a pH 7.4 is reached when adding 50 mM NaPO4 monobasic to the 50 mM NaPO4 dibasic.

[2] = Hygroscopicity observed during salt evaluation (mainly through visualization); type: physicochemical
Description: Determining whether a solid would form was just one factor in this evaluation. […] See, e.g., C. Saal, A. Becker, Euro.

[3] = Pharmacokinetic studies, oral dose, male (fasted) cynomolgus monkeys; type: in vivo
Method: Pharmacokinetic studies were conducted in male (fasted) cynomolgus monkeys (n=2 for each formulation). An oral pill was prepared to compare Form 1 and Form 2. […] The dosage was administered as an oral dose containing 2, 5, or 10 mg/kg, respectively. Serial blood samples were collected at the 0, 0.25, 0.5, 1, 2, 4, 7, and 24-hour time points via the femoral vein by syringe and transferred into K3EDTA vacutainers. Blood samples were then centrifuged, the plasma harvested and stored at −20° C. or −80° C. until analysis.
The appropriate amount of either Form 1 or Form 2 was transferred into a mortar. The corresponding amount of the excipient blend was then geometrically added to the mortar and mixed thoroughly with the respective Form 1 or Form 2 using a pestle. The mixture was transferred to a container, and blended on a Turbula mixer for 5 minutes to provide a blend containing the respective Form 1 or Form 2 mixed with the excipients.
The tablets were compressed to achieve 100 mg tablet weight, with target tablet hardness between 4 and 9 kp at the press speed of 15 tablets per minute.
To prepare a representative batch size of 1 L of 0.5% (w/v) methylcellulose (Methocel® A4M) solution, approximately 0.4 L of deionized water was heated to 80-90° C. after which 5 grams of methylcellulose (Methocel® A4M) was added and mixed thoroughly until the particles were thoroughly wetted. The mixture was then removed from heat. Cold water (0.6 L) was then added, while continuously stirring in the ice bath, until all the methylcellulose particles were dissolved.
The solid powder was triturated (lumps broken) using a pestle. Two mL of 0.5% w/v methylcellulose (Methocel® A4M) was added to the powder drop-wise. The vehicle and free acid were well mixed to form a smooth paste. The remaining of the vehicle was added in small aliquots while mixing until a uniform suspension was obtained. […] Twenty-two microliter of Polysorbate 80 (Tween® 80) was added to the suspension.
The solid powder was triturated (lumps broken) using a pestle. Small amount of 0.5% w/v methylcellulose (Methocel® A4M) was added to the powder to form a smooth paste. The remaining of the vehicle was added in small aliquots while mixing until a uniform suspension was obtained. The suspension was transferred to a container and made up to final volume of 50 mL.

[4] = Hygroscopicity by dynamic vapor sorption; type: physicochemical; conditions: at 90% RH/25° C.
Method: Hygroscopicity was measured using a dynamic vapor sorption instrument manufactured by TA Instruments or Surface Measurement Systems. A sample of each Form was exposed to incremental RH levels until either a weight equilibrium (seen as a plateau) of ≤0.001% weight change in 5 minutes was met, or a maximum time of 120 minutes at each RH level. After the shorter of 0.001% weight equilibrium in 5 minutes or 120 minutes, the sample was then exposed to the next RH level. There was an initial drying period where weight may have been lost with Form 1, no drying was utilized for Form 2. The process starts at 10% RH with RH increased to 20% RH and then a 10% RH increase after each interval (0.001% in 5 minutes equilibrium or 120 min, whichever occurred first). At 90% RH, the RH was reversed back to 10% RH using the same equilibration criteria. The hygroscopicity is measured as a function of the percent weight gain measured at 90% RH.

[5] = Thermodynamic stability of crystalline forms versus water activity; type: physicochemical; conditions: ambient temperature; 0.2 corresponds to 20% RH
[6] = Immediate Release Tablet, 2 mg/kg

Compound: COc1cc(C(=O)N2CCC3(CC2)CC(=O)c2c(cnn2C(C)C)C3)cc(-c2ccc(C(=O)O)cc2)n1 [Compound 1, 4-(4-(1-isopropyl-7-oxo-1,4,6,7-tetrahydrospiro[indazole-5,4′-piperidine]-1′-carbonyl)-6-methoxypyridin-2-yl)benzoic acid]
Solubility pH 1.2 ([1]; listed as Free acid - batch A): 11.8 (avg, n = 2, μM
Solubility pH 1.2 ([1]; listed as Free acid - batch B): 13.0 (avg, n = 2, μM
Solubility pH 1.2 ([1]; listed as Free acid - batch C): <0.5 μM
Solubility pH 6.5 ([1]; listed as Free acid - batch A): 44.7 (avg, n = 2, μM
Solubility pH 6.5 ([1]; listed as Free acid - batch B): 222.0 (avg, n = 2, μM
Solubility pH 6.5 ([1]; listed as Free acid - batch C): 19.6 μM
Solubility pH 7.4 ([1]; listed as Free acid - batch A): 255.0 (avg, n = 2, μM
Solubility pH 7.4 ([1]; listed as Free acid - batch B): 1700.0 (avg, n = 2, μM
Solubility pH 7.4 ([1]; listed as Free acid - batch C): 194.0 μM
AUC/Dose ([3]; Suspension, 10 mg/kg): 4120 ng*h/ml/mpk

Compound: [K+] [potassium]
hygroscopicity of the isolated solid (observation) [2]: too hygroscopic

Compound: O=S(=O)(O)O [sulfuric acid]
hygroscopicity of the isolated solid (observation) [2]: very hygroscopic

Now from value to compound:

Solubility pH 1.2 [1]: 13.5 μM
Solubility pH 6.5 [1]: 1500.0 μM
Solubility pH 7.4 [1]: 5050.0 μM
hygroscopicity of the isolated solid (observation) [2]: too hygroscopic
Compound: [Ca] [Calcium]

Solubility pH 1.2 ([1]; listed as Tris (Form 1)): 1320.0 μM
Solubility pH 6.5 ([1]; listed as Tris (Form 1)): 3980.0 μM
Solubility pH 7.4 ([1]; listed as Tris (Form 1)): 4770.0 μM
AUC/Dose [3, 6]: 5750 ng*h/ml/mpk
AUC/Dose ([3]; Suspension, 5 mg/kg): 7240 ng*h/ml/mpk
hygroscopicity (percent weight gain) [4]: about 1%
water activity at which the form is thermodynamically stable [5]: < 0.2
Compound: COc1cc(C(=O)N2CCC3(CC2)CC(=O)c2c(cnn2C(C)C)C3)cc(-c2ccc(C(=O)O)cc2)n1 [Form 1, 4-(4-(1-isopropyl-7-oxo-1,4,6,7-tetrahydrospiro[indazole-5,4′-piperidine]-1′-carbonyl)-6-methoxypyridin-2-yl)benzoic acid anhydrous tris salt]

AUC/Dose [3, 6]: 5650 ng*h/ml/mpk
hygroscopicity (percent weight gain) [4]: about 1%
water activity at which the form is thermodynamically stable [5]: > 0.2
Compound: COc1cc(C(=O)N2CCC3(CC2)CC(=O)c2c(cnn2C(C)C)C3)cc(-c2ccc(C(=O)O)cc2)n1 [Form 2]

hygroscopicity of the isolated solid (observation) [2]: too hygroscopic
Compound: sodium
